Experimental data reported in patent US11607446B2, “Personalized immunotherapy against several neuronal and brain tumors” (Immatics Biotechnologies GmbH, priority 2013, dated 2023).
Where no end group is shown, it is not given here.

Test system: CD8+ T cells
Experiment: In vitro immunogenicity of HLA-A*02 class I peptides: in vitro T-cell priming with aAPCs loaded with peptide/MHC complexes and anti-CD28 antibody, pMHC multimer readout
Format: cell-based, human
Conditions: HLA-A*02 peptides; for Donors / Donors (percentage in brackets): healthy donors; for Donors: specific multimer+ CD8+ T-cell line after in vitro stimulation; for Wells: in vitro stimulated wells of healthy donors' CD8+ T cells, specific multimer+ readout

| Substance | Donors | Wells | Donors (percentage in brackets) [%] |
| --- | --- | --- | --- |
| SLGLFLAQV (listed as Homo sapiens) [SCARA3-001] | ++ (20%-49 % = ++) | + (<20% = +) | – |
| TLWYRAPEV (listed as Homo sapiens) [CDK4-001] | ++++ (>70% = ++++) | ++ (20%-49 % = ++) | – |
| ALWAWPSEL (listed as Homo sapiens) [BCA-002] | ++++ (>70% = ++++) | ++++ (>70% = ++++) | 100 |
| AIIDGVESV (listed as Homo sapiens) [PTP-003] | ++++ (>70% = ++++) | + (<20% = +) | – |
| RVAS*PTSGV (RVASPTSGV; not fully specified (residue 4); printed as RVAS*PTSGV; listed as Homo sapiens) [IRS-001] | +++ (50%-70% = +++) | + (<20% = +) | – |
| KVFAGIPTV (listed as Homo sapiens) [PTP-005] | ++++ (>70% = ++++) | ++ (20%-49 % = ++) | – |
| AMTQLLAGV (listed as Homo sapiens) [TNC-001] | ++ (20%-49 % = ++) | + (<20% = +) | – |
| ALFNKGGSVFL (listed as Homo sapiens) [GPR98-001] | ++ (20%-49 % = ++) | + (<20% = +) | – |
| TLLAAEFLKQV (listed as Homo sapiens) [CCT-001] | +++ (50%-70% = +++) | + (<20% = +) | – |
| FLVDGSWSI (listed as Homo sapiens) [COL20-001] | ++ (20%-49 % = ++) | + (<20% = +) | – |
| LLYDAVHIV (listed as Homo sapiens) [GRIK3-001] | ++++ (>70% = ++++) | + (<20% = +) | – |
| MIWEHNVEV [PTP-013] | ++++ (>70% = ++++) | + (<20% = +) | – |
| ALGDIREV (listed as Homo sapiens) [ANKRD40-001] | +++ (50%-70% = +++) | + (<20% = +) | – |
| VLCGPPPAV (listed as Homo sapiens) [NC AN-001] | ++++ (>70% = ++++) | + (<20% = +) | 100 |
| FLDSKFYLL (listed as Homo sapiens) [MAP1B-001] | +++ (50%-70% = +++) | + (<20% = +) | – |
| KLFDSDPITVTV (listed as Homo sapiens) [CLU-001] | ++ (20%-49 % = ++) | + (<20% = +) | – |
| SLADFMQEV (listed as Homo sapiens) [CNOT1-002] | ++ (20%-49 % = ++) | + (<20% = +) | – |
| AVVEFLTSV (listed as Homo sapiens) [DROSHA-001] | ++ (20%-49 % = ++) | + (<20% = +) | – |
| KLCEGFNEV (listed as Homo sapiens) [CHCHD2-005] | +++ (50%-70% = +++) | + (<20% = +) | – |
| MLFGHPLLVSV (listed as Homo sapiens) [USP11-001] | ++++ (>70% = ++++) | ++ (20%-49 % = ++) | – |
| KIQEILTQV (listed as Homo sapiens) [IGF2BP3-001] | +++ (50%-70% = +++) | + (<20% = +) | – |

| Substance | Donors | Wells | Donors (percentage in brackets) [%] |
| --- | --- | --- | --- |
| FLLPDTDGLTAL (listed as Homo sapiens) [PTP-012] | ++ (20%-49 % = ++) | + (<20% = +) | – |
| AVAPGPWKV (listed as Homo sapiens) [MAGI2-001] | ++ (20%-49 % = ++) | + (<20% = +) | – |
| KLADQYPHL (listed as Homo sapiens) [SOX-001] | ++++ (>70% = ++++) | + (<20% = +) | – |
| KLGDFGLATVV (listed as Homo sapiens) [DCA-001] | ++ (20%-49 % = ++) | + (<20% = +) | – |
| LTAPPEALLMV (listed as Homo sapiens) [NOC4-001] | +++ (50%-70% = +++) | + (<20% = +) | – |
| TLTNIIHNL (listed as Homo sapiens) [ORMDL1-002] | +++ (50%-70% = +++) | + (<20% = +) | – |
| NLLAEIHGV (listed as Homo sapiens) [DPYSL4-001] | ++ (20%-49 % = ++) | + (<20% = +) | – |
| SLDTLMTYV (listed as Homo sapiens) [NLGN4Y-001] | ++++ (>70% = ++++) | + (<20% = +) | – |
| YLPTFFLTV (listed as Homo sapiens) [ELOVL2-001] | ++++ (>70% = ++++) | + (<20% = +) | – |
| RLISKFDTV (listed as Homo sapiens) [EIF4E-001] | +++ (50%-70% = +++) | + (<20% = +) | – |
| LLWGNAIFL (listed as Homo sapiens) [KIF1A-001] | +++ (50%-70% = +++) | ++ (20%-49 % = ++) | – |
| GLSEFTEYL (listed as Homo sapiens) [MAP1B-002] | ++ (20%-49 % = ++) | + (<20% = +) | – |
| ALAFKLDEV (listed as Homo sapiens) [SLC10A4-001] | +++ (50%-70% = +++) | ++ (20%-49 % = ++) | – |
| RLGIKPESV (listed as Homo sapiens) [CSRP2-001] | ++++ (>70% = ++++) | ++ (20%-49 % = ++) | 100 |
| SLYKGLLSV (listed as Homo sapiens) [RAD54B-001] | ++++ (>70% = ++++) | ++ (20%-49 % = ++) | 100 |
| GLMEKIKEL (listed as Homo sapiens) [CPT1C-001] | ++ (20%-49 % = ++) | + (<20% = +) | – |
| KLTDIQIEL (listed as Homo sapiens) [JAK-001] | ++ (20%-49 % = ++) | + (<20% = +) | – |
| KVFDEVIEV (listed as Homo sapiens) [GYG2-001] | ++ (20%-49 % = ++) | + (<20% = +) | – |
| ALADIAVGV (listed as Homo sapiens) [ADORA3-001] | ++ (20%-49 % = ++) | + (<20% = +) | – |
| TMMSRPPVL (listed as Homo sapiens) [WLS-002] | +++ (50%-70% = +++) | + (<20% = +) | – |
